This passage reports mass density results from the NIST ThermoML archive (doi:10.1021/acs.jced.8b00725).

Numbers after ± are expanded uncertainties.

The conditions of the series: 100 kPa, Liquid, Vibrating tube method.

In general, mass density refers to mass per unit of volume.

For the molecule `CC[NH+](C)C.O=C([O-])C(F)(F)F` [N,N-dimethyl-N-ethylammonium trifluoroacetate], the mass density is listed as 1212.41 ± 10 kg/m3 (293.15 K); 1208.11 ± 10 kg/m3 (298.15 K); 1203.82 ± 10 kg/m3 (303.15 K); 1199.56 ± 10 kg/m3 (308.15 K); 1195.28 ± 10 kg/m3 (313.15 K); 1191.03 ± 10 kg/m3 (318.15 K). Besides, the mass density came to 1186.78 ± 9.9 kg/m3 (323.15 K); 1182.54 ± 9.8 kg/m3 (328.15 K); 1178.33 ± 9.8 kg/m3 (333.15 K); 1174.09 ± 9.7 kg/m3 (338.15 K); 1169.9 ± 9.6 kg/m3 (343.15 K); 1165.69 ± 9.5 kg/m3 (348.15 K). For the same molecule, under “353.15 K”, the mass density is given as 1161.51 ± 9.5 kg/m3.

For the molecule `CC[NH2+]CC.O=S(=O)([O-])O` [diethylammonium hydrogen sulfate], the mass density is listed as 1382.76 ± 13 kg/m3 (293.15 K); 1379.53 ± 13 kg/m3 (298.15 K); 1376.33 ± 13 kg/m3 (303.15 K); 1373.15 ± 13 kg/m3 (308.15 K); 1369.99 ± 13 kg/m3 (313.15 K); 1366.85 ± 13 kg/m3 (318.15 K). Also, the mass density was found to be 1363.73 ± 13 kg/m3 (323.15 K); 1360.62 ± 13 kg/m3 (328.15 K); 1357.53 ± 13 kg/m3 (333.15 K); 1354.45 ± 13 kg/m3 (338.15 K); 1351.38 ± 13 kg/m3 (343.15 K); 1348.31 ± 13 kg/m3 (348.15 K). Besides, the mass density (353.15 K) amounted to 1345.25 ± 13 kg/m3.

Turning to `CC[NH2+]CC.CS(=O)(=O)[O-]` [diethylammonium methanesulfonate], the mass density was 1117.5 ± 8.8 kg/m3 (333.15 K); 1114.27 ± 8.7 kg/m3 (338.15 K); 1111.06 ± 8.7 kg/m3 (343.15 K); 1107.86 ± 8.6 kg/m3 (348.15 K); 1104.68 ± 8.5 kg/m3 (353.15 K).

With `CC[NH2+]CC.O=C([O-])C(F)(F)F` [diethylammonium trifluoroacetate], the mass density is listed as 1158.82 ± 9.4 kg/m3 (323.15 K); 1154.74 ± 9.3 kg/m3 (328.15 K); 1150.69 ± 9.3 kg/m3 (333.15 K); 1146.65 ± 9.2 kg/m3 (338.15 K); 1142.62 ± 9.2 kg/m3 (343.15 K); 1138.55 ± 9.1 kg/m3 (348.15 K). For the setting “353.15 K”, the mass density was determined as 1134.5 ± 9 kg/m3.

For `O=S(=O)(O)O.OCCN(CCO)CCO` [triethanolammonium hydrogen sulfate], the mass density runs as follows: (323.15 K) 1421.3 ± 14 kg/m3; (328.15 K) 1418.8 ± 14 kg/m3; (333.15 K) 1416.33 ± 14 kg/m3; (338.15 K) 1413.85 ± 14 kg/m3; (343.15 K) 1411.31 ± 14 kg/m3; (348.15 K) 1408.87 ± 14 kg/m3. In addition, the mass density (353.15 K) was determined as 1406.37 ± 14 kg/m3.

With `CCC(=O)[O-].OCC[NH+](CCO)CCO` [triethanolammonium propanoate], the mass density (293.15 K) amounted to 1139.53 ± 7 kg/m3; the mass density (298.15 K) was determined as 1136.51 ± 7 kg/m3; the mass density (303.15 K) worked out at 1133.47 ± 7 kg/m3; the mass density (308.15 K) stood at 1130.43 ± 6.9 kg/m3; the mass density (313.15 K) turned out to be 1127.31 ± 6.9 kg/m3; the mass density (318.15 K) is 1124.25 ± 6.9 kg/m3. Moreover, the mass density by setting is: (323.15 K) 1121.15 ± 6.8 kg/m3; (328.15 K) 1118.01 ± 6.8 kg/m3; (333.15 K) 1114.84 ± 6.7 kg/m3; (338.15 K) 1111.68 ± 6.7 kg/m3; (343.15 K) 1108.5 ± 6.7 kg/m3; (348.15 K) 1105.29 ± 6.6 kg/m3. In addition, where the note is “353.15 K”, the mass density stood at 1102.06 ± 6.6 kg/m3.

As for `O=C(O)c1ccccc1O.OCCN(CCO)CCO` [triethanolammonium salicylate], the mass density is, setting by setting: (328.15 K) 1248.43 ± 11 kg/m3; (333.15 K) 1245.42 ± 11 kg/m3; (338.15 K) 1242.4 ± 11 kg/m3; (343.15 K) 1239.42 ± 11 kg/m3; (348.15 K) 1236.44 ± 11 kg/m3; (353.15 K) 1233.42 ± 11 kg/m3.

In the case of `CC(=O)O.CCN(CC)CC` [triethylammonium acetate], the mass density amounted to 1013.29 ± 7.2 kg/m3 (293.15 K); 1009.63 ± 7.1 kg/m3 (298.15 K); 1005.87 ± 7 kg/m3 (303.15 K); 1002.1 ± 7 kg/m3 (308.15 K); 998.33 ± 6.9 kg/m3 (313.15 K); 994.55 ± 6.9 kg/m3 (318.15 K). Also, the mass density runs as follows: (323.15 K) 990.75 ± 6.8 kg/m3; (328.15 K) 986.96 ± 6.8 kg/m3; (333.15 K) 983.14 ± 6.7 kg/m3; (338.15 K) 979.32 ± 6.7 kg/m3; (343.15 K) 975.48 ± 6.6 kg/m3; (348.15 K) 971.62 ± 6.6 kg/m3. The mass density (353.15 K) turned out to be 967.74 ± 6.5 kg/m3.

Take `CC[NH+](CC)CC.O=C([O-])c1ccccc1` [triethylammonium benzoate]: the mass density reads like this: (293.15 K) 1101.47 ± 8.5 kg/m3; (298.15 K) 1098.02 ± 8.4 kg/m3; (303.15 K) 1094.65 ± 8.4 kg/m3; (308.15 K) 1091.27 ± 8.3 kg/m3; (313.15 K) 1087.87 ± 8.3 kg/m3; (318.15 K) 1084.47 ± 8.2 kg/m3. Also, the mass density is, setting by setting: (323.15 K) 1081.07 ± 8.2 kg/m3; (328.15 K) 1077.68 ± 8.1 kg/m3; (333.15 K) 1074.3 ± 8.1 kg/m3; (338.15 K) 1070.92 ± 8 kg/m3; (343.15 K) 1067.55 ± 8 kg/m3; (348.15 K) 1064.18 ± 7.9 kg/m3. Also, the mass density (353.15 K) was 1060.82 ± 7.9 kg/m3.

`CCN(CC)CC.O=P(O)(O)O` [triethylammonium dihydrogen phosphate]: the mass density by setting is: (338.15 K) 1329.48 ± 12 kg/m3; (343.15 K) 1327.08 ± 12 kg/m3; (348.15 K) 1324.69 ± 12 kg/m3; (353.15 K) 1322.31 ± 12 kg/m3.

Consider `CC[NH+](CC)CC.CS(=O)(=O)[O-]` [triethylammonium methanesulfonate], for which the mass density runs as follows: (293.15 K) 1120.47 ± 8.8 kg/m3; (298.15 K) 1117.11 ± 8.7 kg/m3; (303.15 K) 1113.77 ± 8.7 kg/m3; (308.15 K) 1110.44 ± 8.6 kg/m3; (313.15 K) 1107.13 ± 8.6 kg/m3; (318.15 K) 1103.83 ± 8.5 kg/m3. Besides, the mass density is on record as 1100.54 ± 8.5 kg/m3 (323.15 K); 1097.26 ± 8.4 kg/m3 (328.15 K); 1093.99 ± 8.4 kg/m3 (333.15 K); 1090.72 ± 8.3 kg/m3 (338.15 K); 1087.47 ± 8.3 kg/m3 (343.15 K); 1084.22 ± 8.2 kg/m3 (348.15 K). In addition, the mass density (353.15 K) came to 1080.98 ± 8.2 kg/m3.

Consider `CCN(CC)CC.O=C(O)c1ccccc1O` [triethylammonium salicylate], for which the mass density is, setting by setting: (293.15 K) 1099.07 ± 8.5 kg/m3; (298.15 K) 1095.79 ± 8.4 kg/m3; (303.15 K) 1092.57 ± 8.3 kg/m3; (308.15 K) 1089.33 ± 8.3 kg/m3; (313.15 K) 1086.08 ± 8.2 kg/m3; (318.15 K) 1082.83 ± 8.2 kg/m3. For the same molecule, the mass density is listed as 1079.58 ± 8.2 kg/m3 (323.15 K); 1076.35 ± 8.1 kg/m3 (328.15 K); 1073.13 ± 8.1 kg/m3 (333.15 K); 1069.93 ± 8 kg/m3 (338.15 K); 1066.73 ± 8 kg/m3 (343.15 K); 1063.54 ± 7.9 kg/m3 (348.15 K). Besides, the mass density (353.15 K) is listed as 1060.36 ± 7.9 kg/m3.

Consider `CC[NH+](CC)CC.O=C([O-])C(F)(F)F` [triethylammonium trifluoroacetate], for which the mass density was found to be 1165.69 ± 9.5 kg/m3 (293.15 K); 1161.57 ± 9.5 kg/m3 (298.15 K); 1157.44 ± 9.4 kg/m3 (303.15 K); 1153.32 ± 9.3 kg/m3 (308.15 K); 1149.21 ± 9.3 kg/m3 (313.15 K); 1145.1 ± 9.2 kg/m3 (318.15 K). In addition, the mass density (323.15 K) was 1141 ± 9.1 kg/m3; the mass density (328.15 K) is given as 1136.91 ± 9.1 kg/m3; the mass density (333.15 K) was determined as 1132.82 ± 9 kg/m3; the mass density (338.15 K) amounted to 1128.74 ± 8.9 kg/m3; the mass density (343.15 K) is 1124.67 ± 8.9 kg/m3; the mass density (348.15 K) stood at 1120.6 ± 8.8 kg/m3. For the same molecule, the mass density (353.15 K) stood at 1116.54 ± 8.7 kg/m3.

As to `CC[NH+](CC)CC.O=S(=O)([O-])C(F)(F)F` [triethylammonium trifluoromethanesulfonate], the mass density (293.15 K) was 1268.63 ± 11 kg/m3; the mass density (298.15 K) came to 1264.56 ± 11 kg/m3; the mass density (303.15 K) is 1260.51 ± 11 kg/m3; the mass density (308.15 K) amounted to 1256.47 ± 11 kg/m3; the mass density (313.15 K) was 1252.45 ± 11 kg/m3; the mass density (318.15 K) was found to be 1248.45 ± 11 kg/m3. Moreover, the mass density (323.15 K) was found to be 1244.46 ± 11 kg/m3; the mass density (328.15 K) worked out at 1240.48 ± 11 kg/m3; the mass density (333.15 K) was 1236.53 ± 11 kg/m3; the mass density (338.15 K) came out at 1232.58 ± 11 kg/m3; the mass density (343.15 K) is on record as 1228.65 ± 11 kg/m3; the mass density (348.15 K) stood at 1224.73 ± 11 kg/m3. Further, where the note is “353.15 K”, the mass density was 1220.84 ± 10 kg/m3.
